Measurements: patent US9050345B2, “Pyrrolotriazines as potassium ion channel inhibitors” (BRISTOL-MYERS SQUIBB COMPANY, priority 2013, dated 2015)

Each compound was assayed against T1, human KV 1.5 (IKur) (Homo sapiens, UniProt P22460) (assay: block of IKur current in patch clamped L-929 cells expressing human Kv1.5). Details: L929, 0.3 μM; patch clamped mammalian L-929 cells stably expressing human Kv1.5; read-out: KV1_5% Inh L929 @0.3 μM.
T1 construct: expressed in transfected cells
T1 sequence (P22460 whole entry): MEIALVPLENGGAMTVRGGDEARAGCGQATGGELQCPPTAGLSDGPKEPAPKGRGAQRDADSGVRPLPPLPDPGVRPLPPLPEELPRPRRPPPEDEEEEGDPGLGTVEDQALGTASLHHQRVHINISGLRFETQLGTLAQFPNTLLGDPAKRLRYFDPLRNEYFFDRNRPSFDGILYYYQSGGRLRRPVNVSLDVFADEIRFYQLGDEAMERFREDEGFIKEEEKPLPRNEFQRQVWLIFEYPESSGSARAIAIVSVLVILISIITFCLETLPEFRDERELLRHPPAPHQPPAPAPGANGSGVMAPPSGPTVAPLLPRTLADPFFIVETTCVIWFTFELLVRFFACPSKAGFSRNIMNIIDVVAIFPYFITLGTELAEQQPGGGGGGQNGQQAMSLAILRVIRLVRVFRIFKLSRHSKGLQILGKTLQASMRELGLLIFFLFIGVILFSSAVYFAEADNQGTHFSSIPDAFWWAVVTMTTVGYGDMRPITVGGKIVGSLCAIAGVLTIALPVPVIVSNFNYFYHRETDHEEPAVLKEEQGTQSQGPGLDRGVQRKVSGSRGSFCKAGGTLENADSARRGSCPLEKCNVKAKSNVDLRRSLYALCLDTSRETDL
Assay type: cell-based
Work on `NS(=O)(=O)c1ccc(CCNC(=O)c2nc(NCc3ccccc3)c3c(-c4ccccc4)ccn3n2)cc1` [Example 117, 4-(benzylamino)-5-phenyl-N-(4-sulfamoylphenethyl) pyrrolo[1,2-f][1,2,4] triazine-2-carboxamide] yielded an inhibition at 0.3 µM of 86.6%.
`O=C(NC1(CO)CCCC1)c1nc(NCc2ccccc2)c2c(-c3ccccc3)ccn2n1` [Example 118, 4-(benzylamino)-N-(1-(hydroxymethyl)cyclopentyl)-5-phenylpyrrolo [1,2-f][1,2,4] triazine-2-carboxamide] was tested, and the inhibition at 0.3 µM was 45%.
Compound `O=C(NC[C@H](O)c1ccccc1)c1nc(NCc2ccccc2)c2c(-c3ccccc3)ccn2n1` [Example 119, (R)-4-(benzylamino)-N-(2-hydroxy-2-phenylethyl)-5-phenylpyrrolo [1,2-f][1,2,4] triazine-2-carboxamide] has an inhibition at 0.3 µM of 67.5%.
Compound `O=C(c1nc(NCc2ccccc2)c2c(-c3ccccc3)ccn2n1)N1CCN(c2ccc(O)cc2)CC1` [Example 120, (4-(benzylamino)-5-phenylpyrrolo [1,2-f][1,2,4]triazin-2-yl)(4-(4-hydroxyphenyl)piperazin-1-yl)methanone] has an inhibition at 0.3 µM of 49%.
With `O=C(Nc1ccc(CCO)cc1)c1nc(NCc2ccccc2)c2c(-c3ccccc3)ccn2n1` [Example 122, 4-(benzylamino)-N-(4-(2-hydroxyethyl)phenyl)-5-phenylpyrrolo [1,2-f][1,2,4] triazine-2-carboxamide] the inhibition at 0.3 µM was 75.8%.
Work on `O=C(Nc1ccc(-n2cncn2)cc1)c1nc(NCc2ccccc2)c2c(-c3ccccc3)ccn2n1` [Example 123, N-(4-(1H-1,2,4-triazol-1-yl)phenyl)-4-(benzylamino)-5-phenylpyrrolo [1,2-f][1,2,4] triazine-2-carboxamide] yielded an inhibition at 0.3 µM of 63.5%.
`O=C(Nc1ccncn1)c1nc(NCc2ccccc2)c2c(-c3ccccc3)ccn2n1` [Example 124, 4-(benzylamino)-5-phenyl-N-(pyrimidin-4-yl)pyrrolo[1,2-f][1,2,4] triazinc-2-carboxamide] was tested, and the inhibition at 0.3 µM was 86.4%.
`COc1ccc(CNC(=O)c2nc(NCc3ccccc3)c3c(-c4ccccc4)ccn3n2)c(OC)c1` [Example 125, 4-(benzylamino)-N-(2,4-dimethoxybenzyl)-5-phenylpyrrolo [1,2-f][1,2,4] triazine-2-carboxamide] was tested, and the inhibition at 0.3 µM was 88.7%.
With `c1ccc(-c2ccn3nc(-c4cc[nH]n4)nc(NCc4ccccn4)c23)cc1` [Example 126, 5-pheny 1-2-(1H-pyrazol-3-yl)-N-(pyridin-2-ylmethyl) pyrrolo[1,2-f][1,2,4] triazin-4-amine] the inhibition at 0.3 µM was 98.5%.
In the case of `NS(=O)(=O)c1cncc(-c2nc(NCc3ccccn3)c3c(-c4ccccc4)ccn3n2)n1` [Example 127, 6-(5-phenyl-4-(pyridin-2-ylmethylamino)pyrrolo[1,2-f][1,2,4]triazin-2-yl)pyrazine-2-sulfonamide], the inhibition at 0.3 µM is reported as 99.3%.
`c1ccc(CNc2nc(C3CCOCC3)nn3ccc(-c4ccccc4)c23)cc1` [Example 128, N-benzyl-5-phenyl-2-(tetrahydro-2H-pyran-4-yl)pyrrolo[1,2-f][1,2,4] triazin-4-amine] was tested, and the inhibition at 0.3 µM was 95.4%.
With `NS(=O)(=O)c1cncc(-c2nc(NCc3ccccc3)c3c(C4=CCOCC4)ccn3n2)c1` [Example 129, 5-(4-(benzylamino)-5-(3,6-dihydro-2H-pyran-4-yl)pyrrolo[2,1-f][1,2,4]triazin-2-yl)pyridine-3-sulfonamide] the inhibition at 0.3 µM was 93.8%.
`Nc1ncc(-c2nc(NCc3ccccn3)c3c(-c4ccccc4)ccn3n2)cc1S(N)(=O)=O` [Example 130, 2-amino-5-(5-phenyl-4-((pyridin-2-ylmethyl)amino)pyrrolo [2,1-f][1,2,4]triazin-2-yl)pyridine-3-sulfonamide] showed an inhibition at 0.3 µM of 97.6%.
`NS(=O)(=O)c1cncc(-c2nc(NCC3CCCCC3)c3c(-c4ccccc4)ccn3n2)c1` [Example 131, 5-(4-((cyclohexylmethyl)amino)-5-phenylpyrrolo [2,1-f][1,2,4]triazin-2-yl)pyridine-3-sulfonamide] was tested, and the inhibition at 0.3 µM was 83.9%.
In the case of `CCOc1ncc(-c2nc(NCc3ccccn3)c3c(-c4ccccc4)ccn3n2)cc1S(N)(=O)=O` [Example 134, 2-ethoxy-5-(5-phenyl-4-((pyridin-2-ylmethyl)amino)pyrrolo [2,1-f][1,2,4]triazin-2-yl)pyridine-3-sulfonamide], the inhibition at 0.3 µM is reported as 95%.
With `NS(=O)(=O)c1cncc(-c2nc(NCc3ccccn3)c3c(-c4ccccc4C(F)(F)F)ccn3n2)c1` [Example 135, 5-(4-((pyridin-2-ylmethyl)amino)-5-(2-(trifluoromethyl)phenyl)pyrrolo[2,1-f][1,2,4]triazin-2-yl)pyridine-3-sulfonamide] the inhibition at 0.3 µM was 98.5%.
With `NS(=O)(=O)c1cncc(-c2nc(NCc3ccccn3)c3c(-c4ccccc4Cl)ccn3n2)c1` [Example 136, 5-(5-(2-chlorophenyl)-4-((pyridin-2-ylmethyl)amino)pyrrolo [2,1-f][1,2,4]triazin-2-yl)pyridine-3-sulfonamide] the inhibition at 0.3 µM was 98.7%.
`COc1ncc(-c2nc(NCc3cnccn3)c3c(-c4ccccc4)ccn3n2)cc1S(N)(=O)=O` [Example 137, 2-methoxy-5-(5-phenyl-4-((pyrazin-2-ylmethyl)amino)pyrrolo [2,1-f][1,2,4]triazin-2-yl)pyridine-3-sulfonamide] showed an inhibition at 0.3 µM of 82.9%.
In the case of `NS(=O)(=O)c1cncc(-c2nc(NCc3ncccc3F)c3c(-c4ccccc4)ccn3n2)c1` [Example 138, 5-(4-(((3-fluoropyridin-2-yl)methyl)amino)-5-phenylpyrrolo [2,1-f][1,2,4]triazin-2-yl) pyridine-3-sulfonamide], the inhibition at 0.3 µM is reported as 96.2%.
In the case of `COc1cccc(CNc2nc(-c3cnc(OC)c(S(N)(=O)=O)c3)nn3ccc(-c4ccccc4)c23)n1` [Example 139, 2-methoxy-5-(4-(((6-methoxypyridin-2-yl)methyl)amino)-5-phenylpyrrolo [2,1-f][1,2,4]triazin-2-yl)pyridine-3-sulfonamide], the inhibition at 0.3 µM is reported as 98.5%.
With `COc1cccc(CNc2nc(-c3cncc(S(N)(=O)=O)c3)nn3ccc(-c4ccccc4)c23)n1` [Example 140, 5-(4-(((6-methoxypyridin-2-yl)methyl)amino)-5-phenylpyrrolo [2,1-f][1,2,4]triazin-2-yl)pyridine-3-sulfonamide] the inhibition at 0.3 µM was 99.1%.
With `N#Cc1cccc(F)c1CNc1nc(-c2cncc(S(N)(=O)=O)c2)nn2ccc(-c3ccccc3)c12` [Example 141, 5-(4-((2-cyano-6-fluorobenzyl)amino)-5-phenylpyrrolo [2,1-f][1,2,4]triazin-2-yl)pyridine-3-sulfonamide] the inhibition at 0.3 µM was 87.7%.
With `NS(=O)(=O)c1cncc(-c2nc(NCc3cocn3)c3c(-c4ccccc4)ccn3n2)c1` [Example 142, 5-(4-((oxazol-4-ylmethyl)amino)-5-phenylpyrrolo [2,1-f][1,2,4]triazin-2-yl)pyridine-3-sulfonamide] the inhibition at 0.3 µM was 97.2%.
Compound `NS(=O)(=O)c1cncc(-c2nc(N3Cc4ccccc4C3)c3c(-c4ccccc4)ccn3n2)c1` [Example 143, 5-(4-(isoindolin-2-yl)-5-phenylpyrrolo [2,1-f][1,2,4]triazin-2-yl)pyridine-3-sulfonamide] has an inhibition at 0.3 µM of 93.8%.
`NS(=O)(=O)c1cncc(-c2nc(N3Cc4cccnc4C3)c3c(-c4ccccc4)ccn3n2)c1` [Example 144, 5-(4-(5,7-dihydro-6H-pyrrolo[3,4-b]pyridin-6-yl)-5-phenylpyrrolo [2,1-f][1,2,4]triazin-2-yl)pyridine-3-sulfonamide] was tested, and the inhibition at 0.3 µM was 99%.
`NS(=O)(=O)c1cncc(-c2nc(NCC3(O)CCCCC3)c3c(-c4ccccc4)ccn3n2)c1` [Example 145, 5-(4-((1-hydroxycyclohexyl)methylamino)-5-phenylpyrrolo [1,2-f][1,2,4]triazin-2-yl)pyridine-3-sulfonamide] gave an inhibition at 0.3 µM of 62.5%.
`NS(=O)(=O)c1cncc(-c2nc(NCc3ncc[nH]3)c3c(-c4ccccc4)ccn3n2)c1` [Example 146, 5-(4-((1H-imidazol-2-yl)methylamino)-5-phenylpyrrolo [1,2-f][1,2,4]triazin-2-yl)pyridine-3-sulfonamide] was tested, and the inhibition at 0.3 µM was 78.7%.
`COc1ncc(-c2nc(NCc3ccccn3)c3c(-c4ccccc4)ccn3n2)cc1S(N)(=O)=O` [Example 147, 2-methoxy-5-(5-phenyl-4-(pyridin-2-ylmethylamino)pyrrolo[1,2-f][1,2,4]triazin-2-yl)pyridine-3-sulfonamide] gave an inhibition at 0.3 µM of 97.3%.
`NS(=O)(=O)c1cncc(-c2nc(NCc3ccccn3)c3c(-c4cccnc4)ccn3n2)c1` [Example 148, 5-(4-(pyridin-2-ylmethylamino)-5-(pyridin-3-yl)pyrrolo [1,2-f][1,2,4]triazin-2-yl)pyridine-3-sulfonamide] showed an inhibition at 0.3 µM of 84.8%.
For `NS(=O)(=O)c1cccc(-c2nc(NCc3ccccc3)c3c(-c4ccccc4)ccn3n2)c1` [Example 149, 3-(4-(benzylamino)-5-phenylpyrrolo[1,2-f] [1,2,4]triazin-2-yl)benzenesulfonamide], the inhibition at 0.3 µM was 95.8%.
For `NS(=O)(=O)c1cccc(-c2nc(NCc3ccccn3)c3c(-c4ccccc4)ccn3n2)c1` [Example 150, 3-(5-phenyl-4-(pyridin-2-ylmethylamino)pyrrolo [1,2-f][1,2,4]triazin-2-yl)benzenesulfonamide], the inhibition at 0.3 µM was 97.5%.
`Oc1ccc(-c2nc(NCc3ccccn3)c3c(-c4ccccc4)ccn3n2)cn1` [Example 151, 5-(5-phenyl-4-((pyridin-2-ylmethyl)amino)pyrrolo [2,1-f][1,2,4]triazin-2-yl)pyridin-2-ol] gave an inhibition at 0.3 µM of 94.2%.
Work on `NS(=O)(=O)c1cncc(-c2nc(NCc3ncccn3)c3c(-c4ccccc4)ccn3n2)c1` [Example 152, 5-(5-phenyl-4-((pyrimidin-2-ylmethyl)amino)pyrrolo[2,1-f][1,2,4]triazin-2-yl)pyridine-3-sulfonamide] yielded an inhibition at 0.3 µM of 97.3%.
With `NS(=O)(=O)c1cnc(O)c(-c2nc(NCc3ccccn3)c3c(-c4ccccc4)ccn3n2)c1` [Example 153, 6-hydroxy-5-(5-phenyl-4-((pyridin-2-ylmethyl)amino)pyrrolo [2,1-f][1,2,4]triazin-2-yl)pyridine-3-sulfonamide] the inhibition at 0.3 µM was 79.9%.
